The results in this text go back to ChEMBL document CHEMBL3351451, “In search of next generation antimalarials” (Bioorg Med Chem Lett, 2014).

The source made the active and inactive calls. The calls are words filed in the database; no cut-off is given here.

For data set [1], the system named is Plasmodium cynomolgi. As to the kind of experiment: Antimalarial activity against Plasmodium cynomolgi infected in rhesus monkey assessed as curative activity at 1 mg/kg administered daily for 7 days. Also on record: dose 1 mg/kg. The class given is functional, organism-based.
Data set [2] concerns Plasmodium berghei. As to the kind of experiment: Antimalarial activity against Plasmodium berghei infected in mouse assessed as survival time at 5 mg/kg (reference value: 6.1 days). The class given is functional.
Data set [3] relates to Plasmodium berghei. The experiment in a line: Antimalarial activity against Plasmodium berghei infected in mouse assessed as cure at 80 mg/kg measured at 60 days post-infection. The format is functional, organism-based. Also noted: dose 80 mg/kg.
Data set [4] relates to Plasmodium cynomolgi. The experiment in a line: Antimalarial activity against Plasmodium cynomolgi infected in rhesus monkey assessed as curative activity at 0.1 mg/kg administered daily for 7 days. The format is functional, organism-based. Also noted: dose 0.1 mg/kg.
Data set [5] has as its system Plasmodium berghei. The experiment in a line: Antimalarial activity against Plasmodium berghei infected in mouse assessed as cure at 160 mg/kg measured at 60 days post-infection. The format is functional, organism-based. Also on record: dose 160 mg/kg.
Data set [6] concerns Plasmodium berghei. The experiment in a line: Antimalarial activity against Plasmodium berghei infected in mouse assessed as cure at 40 mg/kg measured at 60 days post-infection. The class given is functional, organism-based. Also noted: dose 40 mg/kg.
The test system of data set [7] is Plasmodium berghei. The experiment in a line: Antimalarial activity against Plasmodium berghei infected in mouse assessed as cure at 640 mg/kg measured at 60 days post-infection. The format is functional, organism-based. Also on record: dose 640 mg/kg.
Data set [8] deals with Plasmodium berghei. The experiment in a line: Antimalarial activity against Plasmodium berghei infected in mouse assessed as cure at 10 mg/kg measured at 60 days post-infection. Also on record: dose 10 mg/kg. The format is functional, organism-based.
Data set [9] deals with Plasmodium cynomolgi. The experiment in a line: Antimalarial activity against Plasmodium cynomolgi infected in rhesus monkey assessed as curative activity at 0.316 mg/kg administered daily for 7 days. The format is functional, organism-based. Also noted: dose 0.316 mg/kg.
Data set [10] deals with Plasmodium berghei. As to the kind of experiment: Antimalarial activity against Plasmodium berghei infected in mouse assessed as cure at 320 mg/kg measured at 60 days post-infection. The class given is functional, organism-based. Also on record: dose 320 mg/kg.
Data set [11] deals with Plasmodium berghei. As to the kind of experiment: Antimalarial activity against Plasmodium berghei infected in mouse assessed as cure at 20 mg/kg measured at 60 days post-infection. The class given is functional, organism-based. Also noted: dose 20 mg/kg.
Data set [12] concerns Mus musculus. As to the kind of experiment: Toxicity in mouse infected with Plasmodium berghei at 640 mg/kg. The format is organism-based. The conditions noted are these: in vivo. Also on record: dose 640 mg/kg.
The subject of data set [13] is Mus musculus. The experiment in a line: Toxicity in mouse infected with Plasmodium berghei at 320 mg/kg. The format is organism-based. Also on record: dose 320 mg/kg. Conditions: in vivo.
Data set [14] has as its system Plasmodium berghei. As to the kind of experiment: Antimalarial activity against Plasmodium berghei infected in mouse assessed as cure at 5 mg/kg measured at 60 days post-infection. The format is functional, organism-based. Also on record: dose 5 mg/kg.
Data set [15] deals with Mus musculus. The experiment in a line: Toxicity in mouse infected with Plasmodium berghei at 160 mg/kg. The format is organism-based. Also on record: dose 160 mg/kg. Conditions: in vivo.
The test system of data set [16] is Plasmodium berghei. The experiment in a line: Antimalarial activity against Plasmodium berghei infected in mouse assessed as survival time at 20 mg/kg (reference value: 6.1 days). The format is functional.

`COc1cc(NC(C)CCCN)c2nccc(C)c2c1OCCCCc1ccccc1.O=C(O)/C=C/C(=O)O` (configuration not stated): the result in the data set with Plasmodium cynomolgi [1] and with Plasmodium berghei [3] was Active. The MST in the data set with Plasmodium berghei [2] was 7.6 days. Besides, the outcome in the data set with Plasmodium cynomolgi [4] was inactive.

For `COc1cc(NC(C)CCCN)c2nccc(C)c2c1OCCCCCCCc1ccccc1` (configuration not stated), the outcome in the data set with Plasmodium cynomolgi [1], with Plasmodium berghei [5], in the data set with Plasmodium berghei [6], in the data set on Plasmodium berghei [3], with Plasmodium berghei [7] and in the data set with Plasmodium berghei [8] was Active. The outcome in the data set with Plasmodium berghei [10] and in the data set on Plasmodium berghei [11] was Active. Besides, the result in the data set with Plasmodium cynomolgi [4] and in the data set with Plasmodium cynomolgi [9] was inactive.

With `COc1cc(NC(C)CCCN)c2nccc(C)c2c1OCCCCCCCCc1ccccc1.O=C(O)/C=C/C(=O)O` (configuration not stated), the outcome with Plasmodium berghei [5], with Plasmodium berghei [6], with Plasmodium berghei [3], in the data set with Plasmodium berghei [7] and with Plasmodium berghei [10] was Active. In the data set on Plasmodium berghei [2], the MST stood at 5.7 days.

`CCCCCOc1c(OC)cc(NC(C)CCCN)c2nccc(C)c12` (configuration not stated): the Activity entry in the data set on Mus musculus [12] and in the data set on Mus musculus [13] was “Toxic” in each case. In addition, the outcome in the data set with Plasmodium cynomolgi [1], with Plasmodium berghei [8] and with Plasmodium berghei [14] was Active.

With `COc1cc(NC(C)CCCN)c2nccc(C)c2c1OCCCCCc1ccccc1.O=C(O)/C=C/C(=O)O` (configuration not stated), the outcome with Plasmodium cynomolgi [1], with Plasmodium berghei [5], with Plasmodium berghei [6], with Plasmodium berghei [3] and in the data set with Plasmodium cynomolgi [9] was Active. For the same compound, the MST in the data set on Plasmodium berghei [2] was determined as 7.9 days.

For `COc1cc(NC(C)CCCN)c2nccc(C)c2c1OCCCCCc1ccco1.O=C(O)/C=C/C(=O)O` (configuration not stated), the result in the data set on Plasmodium berghei [5], in the data set on Plasmodium berghei [6] and in the data set on Plasmodium berghei [3] was Active. Moreover, the MST with Plasmodium berghei [2] was found to be 7.7 days.

For the compound `COc1cc(NC(C)CCCN)c2nccc(C)c2c1OCCCCCCc1ccccc1.O=C(O)/C=C/C(=O)O` (configuration not stated), the outcome in the data set on Plasmodium cynomolgi [1] and in the data set with Plasmodium cynomolgi [9] was Active. In addition, the MST with Plasmodium berghei [2] came to 5.9 days. Moreover, in the data set on Plasmodium cynomolgi [4], the outcome was inactive.

For `COc1cc(NC(C)CCCN)c2nccc(C)c2c1OCCCc1ccccc1.O=C(O)/C=C/C(=O)O` (configuration not stated), the Activity entry in the data set on Mus musculus [12], in the data set on Mus musculus [13] and with Mus musculus [15] was “Toxic” in each case. Moreover, the result with Plasmodium cynomolgi [1] and in the data set with Plasmodium berghei [8] was Active.

Turning to `COc1cc(NC(C)CCCN)c2nccc(C)c2c1OCCCCCc1cccs1.O=C(O)/C=C/C(=O)O` (configuration not stated), the result in the data set on Plasmodium berghei [6], in the data set on Plasmodium berghei [3] and in the data set with Plasmodium berghei [11] was Active. The MST in the data set on Plasmodium berghei [2] came to 6.6 days.

Regarding `COc1cc(NC(C)CCCN)c2nccc(C)c2c1OCCCCCCCCCc1ccccc1.O=C(O)/C=C/C(=O)O` (configuration not stated), the result in the data set on Plasmodium berghei [5], in the data set on Plasmodium berghei [7] and in the data set on Plasmodium berghei [10] was Active. The MST with Plasmodium berghei [16] stood at 8.5 days.
